Assay results reported in patent US20080182822A1, “Liquid Pharmaceutical Compositions Comprising a Bisphosphonate Compound” (Besins Healthcare SA, priority 2006, published 2008).
“And” between values parts separate entries of the source, which are not always exact repeats. Equal values may be shown once. Read-outs that look alike come from different tables or passages of the source.

Details: rat; for Faeces Excretion, Amount Excreted (% of Dose), 8 hours / Urinary Excretion, Amount Excreted (% of Dose), 8 hours: collection 0-8 hours; for Faeces Excretion, Amount Excreted (% of Dose), 72 hours / Urinary Excretion, Amount Excreted (% of Dose), 72 hours: collection 48-72 hours; for Faeces Excretion, Amount Excreted (% of Dose), 96 hours / Urinary Excretion, Amount Excreted (% of Dose), 96 hours: collection 72-96 hours; for Faeces Excretion, Amount Excreted (% of Dose), 120 hours / Urinary Excretion, Amount Excreted (% of Dose), 120 hours: collection 96-120 hours; for Faeces Excretion, Amount Excreted (% of Dose), 144 hours / Urinary Excretion, Amount Excreted (% of Dose), 144 hours: collection 120-144 hours; for Faeces Excretion, Amount Excreted (% of Dose), 168 hours / Urinary Excretion, Amount Excreted (% of Dose), 168 hours: collection 144-168 hours; for Recovery from Treated Skin, % of Dose: dermal (Group 2)
[1] = dermal 1.9 mg (Group 2), individual animals
[2] = dermal 1.9 mg (Group 2), collection 8-24 hours, individual animals
[3] = dermal 1.9 mg (Group 2), collection 24-48 hours, individual animals
[4] = dermal 1.9 mg (Group 2), necropsy Day 4, Mean
[5] = dermal 1.9 mg (Group 2), necropsy Day 4, individual animals
[6] = dermal 1.9 mg (Group 2), necropsy Day 8, Mean
[7] = dermal 1.9 mg (Group 2), necropsy Day 8, individual animals

For `NCCCC(O)(P(=O)(O)O)P(=O)(O)O` [14C-alendronate], the “Faeces Excretion, Total Excretion (% of Dose), 0-168 hours” value (dermal 1.9 mg (Group 2), Mean) was “approximately 2 % of Dose”, the “Urinary Excretion, Total Excretion (% of Dose), 0-72 hours” value (dermal 1.9 mg (Group 2), Mean) was 0.40% of Dose and the “Faeces Excretion, Amount Excreted (% of Dose), 8 hours” value (dermal 1.9 mg (Group 2), Mean) was 0.004% of Dose. The “Urinary Excretion, Amount Excreted (% of Dose), 8 hours” value (dermal 1.9 mg (Group 2), Mean) was 0.17% of Dose, the “Faeces Excretion, Amount Excreted (% of Dose), 8 hours” value [1] was 0.004% of Dose (2×) and 0.000% of Dose (2×) and 0.001% of Dose (2×) and 0.014% of Dose and 0.003% of Dose and the “Urinary Excretion, Amount Excreted (% of Dose), 8 hours” value [1] was 0.15% of Dose and 0.02% of Dose and 0.05% of Dose and 0.08% of Dose (2×) and 0.22% of Dose and 0.14% of Dose and 0.09% of Dose and 0.83% of Dose and 0.07% of Dose. The “Urinary Excretion, Amount Excreted (% of Dose), 24 hours” value (dermal 1.9 mg (Group 2), collection 8-24 hours, Mean) was 0.12% of Dose, the “Faeces Excretion, Amount Excreted (% of Dose), 24 hours” value [2] was 0.047% of Dose and 0.001% of Dose and 0.066% of Dose and the “Urinary Excretion, Amount Excreted (% of Dose), 24 hours” value [2] was 0.07% of Dose (3×) and 0.06% of Dose (2×) and 0.05% of Dose and 0.27% of Dose and 0.33% of Dose and 0.16% of Dose and 0.11% of Dose. The “Urinary Excretion, Amount Excreted (% of Dose), 48 hours” value (dermal 1.9 mg (Group 2), collection 24-48 hours, Mean) was 0.06% of Dose, the “Faeces Excretion, Amount Excreted (% of Dose), 48 hours” value [3] was 0.68% of Dose and 0.30% of Dose and 0.58% of Dose and 0.60% of Dose and 0.53% of Dose and 0.52% of Dose and the “Urinary Excretion, Amount Excreted (% of Dose), 48 hours” value [3] was 0.06% of Dose (5×) and 0.02% of Dose (2×) and 0.14% of Dose and 0.12% of Dose and 0.03% of Dose. For the same molecule, the “Faeces Excretion, Amount Excreted (% of Dose), 72 hours” value (dermal 1.9 mg (Group 2), Mean) was 0.16% of Dose, the “Urinary Excretion, Amount Excreted (% of Dose), 72 hours” value (dermal 1.9 mg (Group 2), Mean) was 0.04% of Dose and the “Faeces Excretion, Amount Excreted (% of Dose), 72 hours” value [1] was 0.33% of Dose and 0.19% of Dose and 0.15% of Dose and 0.10% of Dose and 0.46% of Dose and 0.17% of Dose and 0.05% of Dose and 0.02% of Dose (2×). The “Urinary Excretion, Amount Excreted (% of Dose), 72 hours” value [1] was 0.06% of Dose (2×) and 0.02% of Dose (3×) and 0.03% of Dose (2×) and 0.01% of Dose (2×) and 0.13% of Dose, the “Faeces Excretion, Amount Excreted (% of Dose), 96 hours” value (dermal 1.9 mg (Group 2), Mean) was 0.10% of Dose and the “Urinary Excretion, Amount Excreted (% of Dose), 96 hours” value (dermal 1.9 mg (Group 2), Mean) was 0.03% of Dose. The “Faeces Excretion, Amount Excreted (% of Dose), 96 hours” value [1] was 0.13% of Dose and 0.05% of Dose (2×) and 0.09% of Dose and 0.18% of Dose, the “Urinary Excretion, Amount Excreted (% of Dose), 96 hours” value [1] was 0.05% of Dose and 0.03% of Dose (2×) and 0.02% of Dose and 0.01% of Dose and the “Faeces Excretion, Amount Excreted (% of Dose), 120 hours” value (dermal 1.9 mg (Group 2), Mean) was 0.07% of Dose. The “Urinary Excretion, Amount Excreted (% of Dose), 120 hours” value (dermal 1.9 mg (Group 2), Mean) was 0.02% of Dose, the “Faeces Excretion, Amount Excreted (% of Dose), 120 hours” value [1] was 0.13% of Dose and 0.05% of Dose (2×) and 0.02% of Dose and 0.10% of Dose and the “Urinary Excretion, Amount Excreted (% of Dose), 120 hours” value [1] was 0.06% of Dose and 0.02% of Dose (2×) and 0.01% of Dose (2×). The “Faeces Excretion, Amount Excreted (% of Dose), 144 hours” value (dermal 1.9 mg (Group 2), Mean) was 0.05% of Dose, the “Urinary Excretion, Amount Excreted (% of Dose), 144 hours” value (dermal 1.9 mg (Group 2), Mean) was 0.01% of Dose and the “Faeces Excretion, Amount Excreted (% of Dose), 144 hours” value [1] was 0.07% of Dose and 0.04% of Dose (2×) and 0.03% of Dose and 0.09% of Dose. The “Urinary Excretion, Amount Excreted (% of Dose), 144 hours” value [1] was 0.02% of Dose and 0.01% of Dose (4×), the “Faeces Excretion, Amount Excreted (% of Dose), 168 hours” value (dermal 1.9 mg (Group 2), Mean) was 0.00% of Dose and the “Urinary Excretion, Amount Excreted (% of Dose), 168 hours” value (dermal 1.9 mg (Group 2), Mean) was 0.00% of Dose. For the same molecule, the “Faeces Excretion, Amount Excreted (% of Dose), 168 hours” value [1] was 0.01% of Dose (3×) and 0.00% of Dose (2×), the “Urinary Excretion, Amount Excreted (% of Dose), 168 hours” value [1] was 0.01% of Dose and 0.00% of Dose (4×) and the “Faeces Excretion, Total Excretion (% of Dose), 0-72 hours” value [1] was 0.53% of Dose and 0.88% of Dose and 0.59% of Dose. The “Faeces Excretion, Total Excretion (% of Dose), 0-168 hours” value [1] was 0.66% of Dose, the “Urinary Excretion, Total Excretion (% of Dose), 0-72 hours” value [1] was 0.34% of Dose and 0.16% of Dose and 0.20% of Dose and 0.17% of Dose and 0.57% of Dose and 0.74% of Dose and 0.21% of Dose and 0.23% of Dose and 0.22% of Dose and the “Concentration in bone, Femur” value [4] was 0.060 μg 14C-alendronate/g bone. The “Concentration in bone, Tibia” value [4] was 0.039 μg 14C-alendronate/g bone, the “Concentration in bone, Femur” value [5] was 0.222 μg 14C-alendronate/g bone and 0.018 μg 14C-alendronate/g bone (2×) and 0.015 μg 14C-alendronate/g bone and 0.026 μg 14C-alendronate/g bone and the “Concentration in bone, Tibia” value [5] was 0.130 μg 14C-alendronate/g bone and 0.039 μg 14C-alendronate/g bone and 0.016 μg 14C-alendronate/g bone and 0.002 μg 14C-alendronate/g bone and 0.011 μg 14C-alendronate/g bone. The “Concentration in bone, Femur” value [6] was 0.029 μg 14C-alendronate/g bone, the “Concentration in bone, Tibia” value [6] was 0.017 μg 14C-alendronate/g bone and the “Concentration in bone, Femur” value [7] was 0.022 μg 14C-alendronate/g bone and 0.016 μg 14C-alendronate/g bone and 0.011 μg 14C-alendronate/g bone and 0.069 μg 14C-alendronate/g bone. The “Concentration in bone, Tibia” value [7] was 0.012 μg 14C-alendronate/g bone and 0.007 μg 14C-alendronate/g bone and 0.031 μg 14C-alendronate/g bone, the “Recovery from Treated Skin, % of Dose” value (necropsy Day 4, Mean) was 0.35% and the “Recovery from Treated Skin, % of Dose” value (necropsy Day 4, individual animals) was 0.35% (2×) and 0.30% and 0.44% and 0.33%. For the same molecule, the “Recovery from Treated Skin, % of Dose” value (necropsy Day 8, Mean) was 0.28%.
